From patent EP2826473A1, “NOVEL USE OF PATCHOULOL” (Chengdu Huasun Group Inc., Ltd., priority 2012, dated 2013)
≈ marks a conversion by molar mass, not a printed value. Structures can show the parent of a compound that is named as a salt. Where two headings read alike, the source gives them in different places.

Key:
Type in all cases: cell-based
[1] = system: Staphylococcus epidermidis ATCC 12228; assay: in vitro bacteriostatic activity, agar dilution MIC, quality control strain; conditions: Staphylococcus epidermidis, ATCC12228
Enterococcus faecium = assay: in vitro bacteriostatic activity, agar dilution MIC
[2] = system: Staphylococcus aureus MSSA; assay: as above; conditions: Staphylococcus aureus, MSSA
Enterococcus faecalis = assay: as above
[3] = system: Staphylococcus epidermidis MSSE; assay: as above
[4] = Staphylococcus aureus MSSA 12-15
[5] = Staphylococcus aureus MSSA 12-18
[6] = Staphylococcus aureus MSSA 12-21

## CO/N=C(\C(=O)N[C@@H]1C(=O)N2C(C(=O)[O-])=C(C[N+]3(C)CCCC3)CS[C@H]12)c1csc(N)n1 [cefepime, Cefepime hydrochloride]
[1]
  MIC: 1 µg/mL
Enterococcus faecium; Enterococcus faecium 12-7
  MIC: >128 µg/mL
Enterococcus faecium; Enterococcus faecium 12-8
  MIC: >128 µg/mL
Enterococcus faecium; Enterococcus faecium 12-9
  MIC: >128 µg/mL
Enterococcus faecium; Enterococcus faecium 12-10
  MIC: >128 µg/mL
Enterococcus faecium; Enterococcus faecium 12-11
  MIC: >128 µg/mL
Enterococcus faecium; Enterococcus faecium 12-12
  MIC: >128 µg/mL
Enterococcus faecium; Enterococcus faecium 12-13
  MIC: >128 µg/mL
Enterococcus faecium; Enterococcus faecium 12-14
  MIC: >128 µg/mL
Enterococcus faecium; Enterococcus faecium 12-15
  MIC: >128 µg/mL
Enterococcus faecium; Enterococcus faecium 12-16
  MIC: >128 µg/mL
Enterococcus faecium; Enterococcus faecium, ATCC33186, Enterococcus faecium ATCC 33186
  MIC: 16 µg/mL
[2]; Staphylococcus aureus MSSA 12-11
  MIC: 4 µg/mL
[2]; Staphylococcus aureus MSSA 12-13
  MIC: 4 µg/mL
[2]; Staphylococcus aureus MSSA 12-14
  MIC: 2 µg/mL
[2]; [4]
  MIC: 2 µg/mL
[2]; Staphylococcus aureus MSSA 12-16
  MIC: 4 µg/mL
[2]; Staphylococcus aureus MSSA 12-17
  MIC: 4 µg/mL
[2]; [5]
  MIC: 2 µg/mL
[2]; Staphylococcus aureus MSSA 12-19
  MIC: 2 µg/mL
[2]; Staphylococcus aureus MSSA 12-20
  MIC: 2 µg/mL
[2]; [6]
  MIC: 4 µg/mL
Enterococcus faecalis; Enterococcus faecalis 12-11
  MIC: >128 µg/mL
Enterococcus faecalis; Enterococcus faecalis 12-13
  MIC: >128 µg/mL
Enterococcus faecalis; Enterococcus faecalis, ATCC29212, Enterococcus faecalis ATCC 29212
  MIC: 16 µg/mL
Enterococcus faecalis; Enterococcus faecalis, ATCC51299, Enterococcus faecalis (high endurance) ATCC 51299
  MIC: 32 µg/mL
Enterococcus faecalis; Enterococcus faecalis, Enterococcus faecalis 12-12
  MIC: 4 µg/mL
Enterococcus faecalis; Enterococcus faecalis, Enterococcus faecalis 12-14
  MIC: 8 µg/mL
Enterococcus faecalis; Enterococcus faecalis, Enterococcus faecalis 12-17
  MIC: 32 µg/mL
Enterococcus faecalis; Enterococcus faecalis, Enterococcus faecalis 12-18
  MIC: 16 µg/mL
Enterococcus faecalis; Enterococcus faecalis, Enterococcus faecalis 12-19
  MIC: 16 µg/mL
Enterococcus faecalis; Enterococcus faecalis, Enterococcus faecalis 12-20
  MIC: 16 µg/mL
Enterococcus faecalis; Enterococcus faecalis, Enterococcus faecalis 12-21
  MIC: 16 µg/mL
Enterococcus faecalis; Enterococcus faecalis, Enterococcus faecalis 12-22
  MIC: 32 µg/mL
[3]; Staphylococcus epidermidis, Staphylococcus epidermidis MSSE 12-11
  MIC: 1 µg/mL
[3]; Staphylococcus epidermidis, Staphylococcus epidermidis MSSE 12-12
  MIC: 1 µg/mL
[3]; Staphylococcus epidermidis, Staphylococcus epidermidis MSSE 12-13
  MIC: 1 µg/mL
[3]; Staphylococcus epidermidis, Staphylococcus epidermidis MSSE 12-14
  MIC: 16 µg/mL
[3]; Staphylococcus epidermidis, Staphylococcus epidermidis MSSE 12-15
  MIC: 16 µg/mL
[3]; Staphylococcus epidermidis, Staphylococcus epidermidis MSSE 12-16
  MIC: 0.25 µg/mL
[3]; Staphylococcus epidermidis, Staphylococcus epidermidis MSSE 12-17
  MIC: 2 µg/mL
[3]; Staphylococcus epidermidis, Staphylococcus epidermidis MSSE 12-18
  MIC: 1 µg/mL
[3]; Staphylococcus epidermidis, Staphylococcus epidermidis MSSE 12-19
  MIC: 1 µg/mL
[3]; Staphylococcus epidermidis, Staphylococcus epidermidis MSSE 12-20
  MIC: 2 µg/mL

## CC[C@H]1OC(=O)[C@H](C)[C@@H](O[C@H]2C[C@@](C)(OC)[C@@H](O)[C@H](C)O2)[C@H](C)[C@@H](O[C@@H]2O[C@H](C)C[C@H](N(C)C)[C@H]2O)[C@](C)(O)C[C@@H](C)CN(C)[C@H](C)[C@@H](O)[C@]1(C)O [azithromycin, Azithromycin]
[1]
  MIC: 0.125 µg/mL (≈ 0.167 µM)
Enterococcus faecium; Enterococcus faecium, ATCC33186, Enterococcus faecium ATCC 33186, read-out: MIC
  MIC: 2 µg/mL (≈ 2.67 µM)
Enterococcus faecium; Enterococcus faecium, Enterococcus faecium 12-7, read-out: MIC
  MIC: > 128 µg/mL
Enterococcus faecium; Enterococcus faecium, Enterococcus faecium 12-8, read-out: MIC
  MIC: 1 µg/mL (≈ 1.34 µM)
Enterococcus faecium; Enterococcus faecium, Enterococcus faecium 12-9, read-out: MIC
  MIC: > 128 µg/mL
Enterococcus faecium; Enterococcus faecium, Enterococcus faecium 12-10, read-out: MIC
  MIC: > 128 µg/mL
Enterococcus faecium; Enterococcus faecium, Enterococcus faecium 12-11, read-out: MIC
  MIC: > 128 µg/mL
Enterococcus faecium; Enterococcus faecium, Enterococcus faecium 12-12, read-out: MIC
  MIC: > 128 µg/mL
Enterococcus faecium; Enterococcus faecium, Enterococcus faecium 12-13, read-out: MIC
  MIC: > 128 µg/mL
Enterococcus faecium; Enterococcus faecium, Enterococcus faecium 12-14, read-out: MIC
  MIC: > 128 µg/mL
Enterococcus faecium; Enterococcus faecium, Enterococcus faecium 12-15, read-out: MIC
  MIC: > 128 µg/mL
Enterococcus faecium; Enterococcus faecium, Enterococcus faecium 12-16, read-out: MIC
  MIC: > 128 µg/mL
[2]; Staphylococcus aureus MSSA 12-11, read-out: MIC
  MIC: > 128 µg/mL
[2]; Staphylococcus aureus MSSA 12-13, read-out: MIC
  MIC: 0.25 µg/mL (≈ 0.334 µM)
[2]; Staphylococcus aureus MSSA 12-14, read-out: MIC
  MIC: > 128 µg/mL
[2]; [4]
  MIC: 0.125 µg/mL (≈ 0.167 µM)
[2]; Staphylococcus aureus MSSA 12-16, read-out: MIC
  MIC: > 128 µg/mL
[2]; Staphylococcus aureus MSSA 12-17, read-out: MIC
  MIC: > 128 µg/mL
[2]; [5]
  MIC: 128 µg/mL (≈ 171 µM)
[2]; Staphylococcus aureus MSSA 12-19, read-out: MIC
  MIC: > 128 µg/mL
[2]; Staphylococcus aureus MSSA 12-20, read-out: MIC
  MIC: > 128 µg/mL
[2]; [6]
  MIC: 128 µg/mL (≈ 171 µM)
Enterococcus faecalis; Enterococcus faecalis, ATCC29212, Enterococcus faecalis ATCC 29212, read-out: MIC
  MIC: 4 µg/mL (≈ 5.34 µM)
Enterococcus faecalis; Enterococcus faecalis, ATCC51299, Enterococcus faecalis (high endurance) ATCC 51299, read-out: MIC
  MIC: > 128 µg/mL
Enterococcus faecalis; Enterococcus faecalis, Enterococcus faecalis 12-11, read-out: MIC
  MIC: > 128 µg/mL
Enterococcus faecalis; Enterococcus faecalis, Enterococcus faecalis 12-12, read-out: MIC
  MIC: 4 µg/mL (≈ 5.34 µM)
Enterococcus faecalis; Enterococcus faecalis, Enterococcus faecalis 12-13, read-out: MIC
  MIC: > 128 µg/mL
Enterococcus faecalis; Enterococcus faecalis, Enterococcus faecalis 12-14, read-out: MIC
  MIC: 1 µg/mL (≈ 1.34 µM)
Enterococcus faecalis; Enterococcus faecalis, Enterococcus faecalis 12-17, read-out: MIC
  MIC: > 128 µg/mL
Enterococcus faecalis; Enterococcus faecalis, Enterococcus faecalis 12-18, read-out: MIC
  MIC: > 128 µg/mL
Enterococcus faecalis; Enterococcus faecalis, Enterococcus faecalis 12-19, read-out: MIC
  MIC: > 128 µg/mL
Enterococcus faecalis; Enterococcus faecalis, Enterococcus faecalis 12-20, read-out: MIC
  MIC: > 128 µg/mL
Enterococcus faecalis; Enterococcus faecalis, Enterococcus faecalis 12-21, read-out: MIC
  MIC: > 128 µg/mL
Enterococcus faecalis; Enterococcus faecalis, Enterococcus faecalis 12-22, read-out: MIC
  MIC: > 128 µg/mL
[3]; Staphylococcus epidermidis
  MIC: 128 µg/mL (≈ 171 µM)
[3]; Staphylococcus epidermidis MSSE 12-20
  MIC: 128 µg/mL (≈ 171 µM)
[3]; Staphylococcus epidermidis, Staphylococcus epidermidis MSSE 12-12, read-out: MIC
  MIC: 4 µg/mL (≈ 5.34 µM)
[3]; Staphylococcus epidermidis, Staphylococcus epidermidis MSSE 12-13, read-out: MIC
  MIC: > 128 µg/mL
[3]; Staphylococcus epidermidis, Staphylococcus epidermidis MSSE 12-14, read-out: MIC
  MIC: 8 µg/mL (≈ 10.7 µM)
[3]; Staphylococcus epidermidis, Staphylococcus epidermidis MSSE 12-15, read-out: MIC
  MIC: 8 µg/mL (≈ 10.7 µM)
[3]; Staphylococcus epidermidis, Staphylococcus epidermidis MSSE 12-16, read-out: MIC
  MIC: 64 µg/mL (≈ 85.4 µM)
[3]; Staphylococcus epidermidis, Staphylococcus epidermidis MSSE 12-17, read-out: MIC
  MIC: 8 µg/mL (≈ 10.7 µM)
[3]; Staphylococcus epidermidis, Staphylococcus epidermidis MSSE 12-18, read-out: MIC
  MIC: 16 µg/mL (≈ 21.4 µM)
[3]; Staphylococcus epidermidis, Staphylococcus epidermidis MSSE 12-19, read-out: MIC
  MIC: 16 µg/mL (≈ 21.4 µM)
